# Assay results reported in patent US7998952B2, “Thiolactams and uses thereof” (Millennium Pharmaceuticals, Inc., priority 2008, dated 2011).
# Molecular target: T1, recombinant human PLK1[2-369]T210D (Homo sapiens, UniProt P53350, T210D)
# T1 construct: recombinant human PLK1[2-369]T210D; Smt (SUMO) fusion partner (N, cleaved yes); host or cells: E. coli
# Experiment: PLK1 DELFIA Kinase Assay
# Type: biochemical
# Conditions: 50 μM ATP, 2 μM peptide substrate, 0.3 nM enzyme, 90 minutes at room temperature
# Procedure: Recombinant human PLK1 was expressed in E. coli as an N-terminal Smt fusion protein using a proprietary vector (pSGX4) by Structural Genomics (SGX). The fusion partner was removed through cleavage with Ulp1 after an initial purification using a Ni2+ affinity column.
# PLK1 DELFIA® Kinase Assay
# The enzymatic reaction mixture, with or without PLK inhibitors, was incubated 90 minutes at room temperature before termination with 50 μL of STOP buffer containing 1% BSA, 0.05% Tween20, 100 mM EDTA. 50 μL of the stopped enzyme reaction mixture was transferred to a Neutravidin-coated 384-well plate (Pierce) and incubated at room temperature for 60 minutes. […] The wells were washed and then the bound europium was liberated using 50 μL of Enhancement Solution (Perkin Elmer). Quantification of europium was done using a Pherastar (BMG Labtech)
# T1 sequence (P53350 2-369 T210D): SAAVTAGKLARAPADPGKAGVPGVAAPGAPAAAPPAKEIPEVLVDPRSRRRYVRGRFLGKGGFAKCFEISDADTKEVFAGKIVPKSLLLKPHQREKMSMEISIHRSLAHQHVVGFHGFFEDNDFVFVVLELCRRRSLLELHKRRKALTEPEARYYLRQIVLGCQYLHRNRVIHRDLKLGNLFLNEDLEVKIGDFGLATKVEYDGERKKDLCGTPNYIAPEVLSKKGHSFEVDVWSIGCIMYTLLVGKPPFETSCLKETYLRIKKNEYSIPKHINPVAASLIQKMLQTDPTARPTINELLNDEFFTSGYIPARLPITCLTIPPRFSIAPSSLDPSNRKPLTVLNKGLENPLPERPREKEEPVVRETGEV
row,Compound,IC50
1,"Cc1ccnc(C)c1Nc1ncc2c(n1)-c1ccc(Cl)cc1NC(=S)C2 [Compound I-37, 9-chloro-2-[(2,4-dimethylpyridin-3-yl)amino]-5,7-dihydro-6H-pyrimido[5,4-d][1]benzazepine-6-thione]",> 25 nM
2,"CCc1ncc(CCCN(C)C)cc1Nc1ncc2c(n1)-c1ccc(Cl)cc1NC(=S)C2 [Compound I-38, 9-chloro-2-({5-[3-(dimethylamino)propyl]-2-ethylpyridin-3-yl}amino)-5,7-dihydro-6H-pyrimido[5,4-d][1]benzazepine-6-thione]",< 5 nM
3,"Cc1ncc(CCCN(C)C)cc1Nc1ncc2c(n1)-c1ccc(C3CC3)cc1NC(=S)C2 [Compound I-39, 9-cyclopropyl-2-({5-[3-(dimethylamino)propyl]-2-methylpyridin-3-yl}amino)-5,7-dihydro-6H-pyrimido[5,4-d][1]benzazepine-6-thione]",< 5 nM
4,"Cc1nc(NCC2CCN(C)CC2)ccc1Nc1ncc2c(n1)-c1ccc(Cl)cc1NC(=S)C2 [Compound I-40, 9-chloro-2-[(2-methyl-6-{[(1-methylpiperidin-4-yl)methyl]amino}pyridin-3-yl)amino]-5,7-dihydro-6H-pyrimido[5,4-d][1]benzazepine-6-thione]",< 5 nM
5,"Cc1nc(N(C)CCCN(C)C)ccc1Nc1ncc2c(n1)-c1ccc(Cl)cc1NC(=S)C2 [Compound I-41, 9-chloro-2-({6-[[3-(dimethylamino)propyl](methyl)amino]-2-methylpyridin-3-yl}amino)-5,7-dihydro-6H-pyrimido[5,4-d][1]benzazepine-6-thione]",5 to 25 nM
6,"Cc1nc(C)c(Nc2ncc3c(n2)-c2ccc(Cl)cc2NC(=S)C3)cc1CCCN(C)C [Compound I-42, 9-chloro-2-({5-[3-(dimethylamino)propyl]-2,6-dimethylpyridin-3-yl}amino)-5,7-dihydro-6H-pyrimido[5,4-d][1]benzazepine-6-thione]",< 5 nM
7,"Cc1ncc(CCN2CCOCC2)cc1Nc1ncc2c(n1)-c1ccc(C(F)(F)F)cc1NC(=S)C2 [Compound I-43, 2-{[2-methyl-5-(2-morpholin-4-ylethyl)pyridin-3-yl]amino}-9-(trifluoromethyl)-5,7-dihydro-6H-pyrimido[5,4-d][1]benzazepine-6-thione]",< 5 nM
8,"Cc1nc(CC2CCN(C)CC2)ccc1Nc1ncc2c(n1)-c1ccc(Cl)cc1NC(=S)C2 [Compound I-44, 9-chloro-2-({2-methyl-6-[(1-methylpiperidin-4-yl)methyl]pyridin-3-yl}amino)-5,7-dihydro-6H-pyrimido[5,4-d][1]benzazepine-6-thione]",5 to 25 nM
9,"Cc1ncc(CCN2CCCC2)cc1Nc1ncc2c(n1)-c1ccc(Cl)cc1NC(=S)C2 [Compound I-45, 9-chloro-2-{[2-methyl-5-(2-pyrrolidin-1-ylethyl)pyridin-3-yl]amino}-5,7-dihydro-6H-pyrimido[5,4-d][1]benzazepine-6-thione]",< 5 nM
10,"Cc1ncc(N2CCN(C)CC2)cc1Nc1ncc2c(n1)-c1ccc(C(F)(F)F)cc1NC(=S)C2 [Compound I-46, 2-{[2-methyl-5-(4-methylpiperazin-1-yl)pyridin-3-yl]amino}-9-(trifluoromethyl)-5,7-dihydro-6H-pyrimido[5,4-d][1]benzazepine-6-thione]",< 5 nM
11,"S=C1Cc2cnc(Nc3ccc(N4CCCC4)nc3)nc2-c2ccc(Cl)cc2N1 [Compound I-47, 9-chloro-2-[(6-pyrrolidin-1-ylpyridin-3-yl)amino]-5,7-dihydro-6H-pyrimido[5,4-d][1]benzazepine-6-thione]",< 5 nM
12,"CCN1[C@H](C)CN(c2cnc(C)c(Nc3ncc4c(n3)-c3ccc(Cl)cc3NC(=S)C4)c2)C[C@@H]1C [Compound I-49, 9-chloro-2-({5-[(3R,5S)-4-ethyl-3,5-dimethylpiperazin-1-yl]-2-methylpyridin-3-yl}amino)-5,7-dihydro-6H-pyrimido[5,4-d][1]benzazepine-6-thione]",< 5 nM
13,"Cc1ncc(CCN(C)C)cc1Nc1ncc2c(n1)-c1ccc(C(F)(F)F)cc1NC(=S)C2 [Compound I-50, 2-({5-[2-(dimethylamino)ethyl]-2-methylpyridin-3-yl}amino)-9-(trifluoromethyl)-5,7-dihydro-6H-pyrimido[5,4-d][1]benzazepine-6-thione]",< 5 nM
14,"CN1CCN(CCc2cncc(Nc3ncc4c(n3)-c3ccc(Cl)cc3NC(=S)C4)c2)CC1 [Compound I-51, 9-chloro-2-({5-[2-(4-methylpiperazin-1-yl)ethyl]pyridin-3-yl}amino)-5,7-dihydro-6H-pyrimido[5,4-d][1]benzazepine-6-thione]",< 5 nM
15,"Cc1ncc(CCN2CCC(N(C)C)CC2)cc1Nc1ncc2c(n1)-c1ccc(C(F)(F)F)cc1NC(=S)C2 [Compound I-52, 2-[(5-{2-[4-(dimethylamino)piperidin-1-yl]ethyl}-2-methylpyridin-3-yl)amino]-9-(trifluoromethyl)-5,7-dihydro-6H-pyrimido[5,4-d][1]benzazepine-6-thione]",< 5 nM

# More lines, now with the values ahead:
row,IC50,Compound
1,< 5 nM,"Cc1ncc(CCN2CCCCC2)cc1Nc1ncc2c(n1)-c1ccc(Cl)cc1NC(=S)C2 [Compound I-54, 9-chloro-2-{[2-methyl-5-(2-piperidin-1-ylethyl)pyridin-3-yl]amino}-5,7-dihydro-6H-pyrimido[5,4-d][1]benzazepine-6-thione]"
2,< 5 nM,"Cc1ncc(CCCO)cc1Nc1ncc2c(n1)-c1ccc(C(F)(F)F)cc1NC(=S)C2 [Compound I-55, 2-{[5-(3-hydroxypropyl)-2-methylpyridin-3-yl]amino}-9-(trifluoromethyl)-5,7-dihydro-6H-pyrimido[5,4-d][1]benzazepine-6-thione]"
3,5 to 25 nM,"Cc1nc(OC2CCN(C)CC2)ccc1Nc1ncc2c(n1)-c1ccc(Cl)cc1NC(=S)C2 [Compound I-56, 9-chloro-2-({2-methyl-6-[(1-methylpiperidin-4-yl)oxy]pyridin-3-yl}amino)-5,7-dihydro-6H-pyrimido[5,4-d][1]benzazepine-6-thione]"
4,< 5 nM,"Cc1nc(NC(C)C)ccc1Nc1ncc2c(n1)-c1ccc(C(F)(F)F)cc1NC(=S)C2 [Compound I-57, 2-{[6-(isopropylamino)-2-methylpyridin-3-yl]amino}-9-(trifluoromethyl)-5,7-dihydro-6H-pyrimido[5,4-d][1]benzazepine-6-thione]"
5,< 5 nM,"CCN1CCN(c2cncc(Nc3ncc4c(n3)-c3ccc(Cl)cc3NC(=S)C4)c2)C[C@H]1C [Compound I-58, 9-chloro-2-({5-[(3R)-4-ethyl-3-methylpiperazin-1-yl]pyridin-3-yl}amino)-5,7-dihydro-6H-pyrimido[5,4-d][1]benzazepine-6-thione]"
6,< 5 nM,"Cc1ncc(CCN2CCC(N(C)C)CC2)cc1Nc1ncc2c(n1)-c1ccc(Cl)cc1NC(=S)C2 [Compound I-59, 9-chloro-2-[(5-{2-[4-(dimethylamino)piperidin-1-yl]ethyl}-2-methylpyridin-3-yl)amino]-5,7-dihydro-6H-pyrimido[5,4-d][1]benzazepine-6-thione]"
7,< 5 nM,"Cc1ccc2c(c1)NC(=S)Cc1cnc(Nc3cc(CCCN(C)C)cnc3C)nc1-2 [Compound I-60, 2-({5-[3-(dimethylamino)propyl]-2-methylpyridin-3-yl}amino)-9-methyl-5,7-dihydro-6H-pyrimido[5,4-d][1]benzazepine-6-thione]"
8,< 5 nM,"CN1CCN(c2ccc(Nc3ncc4c(n3)-c3ccc(C(F)(F)F)cc3NC(=S)C4)cn2)CC1 [Compound I-61, 2-{[6-(4-methylpiperazin-1-yl)pyridin-3-yl]amino}-9-(trifluoromethyl)-5,7-dihydro-6H-pyrimido[5,4-d][1]benzazepine-6-thione]"
9,< 5 nM,"CNCCCc1cnc(C)c(Nc2ncc3c(n2)-c2ccc(C(F)(F)F)cc2NC(=S)C3)c1 [Compound I-62, 2-({2-methyl-5-[3-(methylamino)propyl]pyridin-3-yl}amino)-9-(trifluoromethyl)-5,7-dihydro-6H-pyrimido[5,4-d][1]benzazepine-6-thione]"
10,< 5 nM,"Cc1ncc(C2CCN(C)CC2(C)C)cc1Nc1ncc2c(n1)-c1ccc(Cl)cc1NC(=S)C2 (centres unmarked) [Compound I-63, 9-chloro-2-{[2-methyl-5-(1,3,3-trimethylpiperidin-4-yl)pyridin-3-yl]amino}-5,7-dihydro-6H-pyrimido[5,4-d][1]benzazepine-6-thione]"
11,< 5 nM,"Cc1nc(NCCN(C)C)ccc1Nc1ncc2c(n1)-c1ccc(C(F)(F)F)cc1NC(=S)C2 [Compound I-64, 2-[(6-{[2-(dimethylamino)ethyl]amino}-2-methylpyridin-3-yl)amino]-9-(trifluoromethyl)-5,7-dihydro-6H-pyrimido[5,4-d][1]benzazepine-6-thione]"
12,< 5 nM,Cc1nc(NCC2CCN(C)CC2)ccc1Nc1ncc2c(n1)-c1ccc(C(F)(F)F)cc1NC(=S)C2 [Compound I-65]
13,< 5 nM,"CCN1CCN(c2cnc(C)c(Nc3ncc4c(n3)-c3ccc(Cl)cc3NC(=S)C4)c2)C[C@@H]1C [Compound I-66, 9-chloro-2-({5-[(3S)-4-ethyl-3-methylpiperazin-1-yl]-2-methylpyridin-3-yl}amino)-5,7-dihydro-6H-pyrimido[5,4-d][1]benzazepine-6-thione]"
14,< 5 nM,"Cc1nc(NC2CCNCC2)ccc1Nc1ncc2c(n1)-c1ccc(C(F)(F)F)cc1NC(=S)C2 [Compound I-67, 2-{[2-methyl-6-(piperidin-4-ylamino)pyridin-3-yl]amino}-9-(trifluoromethyl)-5,7-dihydro-6H-pyrimido[5,4-d][1]benzazepine-6-thione]"
